biological target: T1, human TLR8 (Homo sapiens, UniProt Q9NR97); test: TLR8 inhibition reporter assay (HEK-Blue SEAP, R848 stimulation); format: cell-based; conditions: HEK-Blue cells overexpressing human TLR8, R848 15.9 μM
T1 sequence (Q9NR97 27-1041): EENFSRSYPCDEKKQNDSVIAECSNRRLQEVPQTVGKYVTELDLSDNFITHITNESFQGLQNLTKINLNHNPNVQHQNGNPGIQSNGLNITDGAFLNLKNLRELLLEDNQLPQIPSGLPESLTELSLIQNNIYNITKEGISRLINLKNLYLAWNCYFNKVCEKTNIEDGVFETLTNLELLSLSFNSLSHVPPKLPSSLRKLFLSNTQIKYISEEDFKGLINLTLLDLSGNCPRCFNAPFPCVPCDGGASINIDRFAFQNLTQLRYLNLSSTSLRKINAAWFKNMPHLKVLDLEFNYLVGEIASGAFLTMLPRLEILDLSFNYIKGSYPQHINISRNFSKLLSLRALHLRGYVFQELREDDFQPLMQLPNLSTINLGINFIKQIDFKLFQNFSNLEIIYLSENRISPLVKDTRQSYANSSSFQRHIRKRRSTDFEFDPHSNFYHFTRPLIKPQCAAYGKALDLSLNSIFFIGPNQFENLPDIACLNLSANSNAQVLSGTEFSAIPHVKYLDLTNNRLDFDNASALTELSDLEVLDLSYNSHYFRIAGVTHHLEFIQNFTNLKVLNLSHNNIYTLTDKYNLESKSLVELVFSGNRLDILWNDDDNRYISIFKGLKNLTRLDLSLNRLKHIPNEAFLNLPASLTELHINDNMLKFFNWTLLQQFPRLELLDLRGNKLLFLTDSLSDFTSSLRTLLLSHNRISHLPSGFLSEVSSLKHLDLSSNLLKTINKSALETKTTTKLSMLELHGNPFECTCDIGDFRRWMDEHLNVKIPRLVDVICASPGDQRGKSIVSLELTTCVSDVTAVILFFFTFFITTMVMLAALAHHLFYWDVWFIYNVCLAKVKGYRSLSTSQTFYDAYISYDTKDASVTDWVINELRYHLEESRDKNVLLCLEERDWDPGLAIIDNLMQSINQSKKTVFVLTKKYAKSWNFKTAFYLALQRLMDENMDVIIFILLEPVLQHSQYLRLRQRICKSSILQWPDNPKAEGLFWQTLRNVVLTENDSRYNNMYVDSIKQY
Experimental: (§1) TLR7/8/9 Inhibition Reporter Assays
(§2) HEK-Blue™-cells (Invivogen) overexpressing human TLR7, TLR8 or TLR9 receptors were used for screening inhibitors of these receptors using an inducible SEAP (secreted embryonic alkaline phosphatase) reporter gene under the control of the IFN-β minimal promoter fused to five NF-κB and AP-1-binding sites. Briefly, cells are seeded into Greiner 384 well plates (15000 cells per well for TLR7, 20,000 for TLR8 and 25,000 for TLR9) and then treated with test compounds in DMSO to yield a final dose response concentration range of 0.05 nM-50 μM. After a 30 minute compound pre-treatment at room temperature, the cells are then stimulated with a TLR7 ligand (gardiquimod at a final concentration of 7.5 μM), TLR8 ligand (R848 at a final concentration of 15.9 μM) or TLR9 ligand (ODN2006 at a final concentration of 5 nM) to activate NF-κB and AP-1 which induce the production of SEAP. After a 22 hour incubation at 37° C., 5% CO2, SEAP levels are determined with the addition of HEK-Blue™ Detection reagent (Invivogen), a cell culture medium that allows for detection of SEAP, according to manufacturer's specifications. The percent inhibition is determined as the % reduction in the HEK-Blue signal present in wells treated with agonist plus DMSO alone compared to wells treated with a known inhibitor.

Row | SMILES | IC50
1 | Cc1cc(-c2[nH]c3sc(N4CCNC[C@H]4C)nc3c2C(C)C)cn2ncnc12 [Example 311, (R)-6-isopropyl-5-(8-methyl-[1,2,4]triazolo[1,5-a]pyridin-6-yl)-2-(2-methylpiperazin-1-yl)-4H-pyrrolo[3,2-d]thiazole] | > 3.13 µM
2 | COCCN1CCN(c2nc3c(C(C)C)c(-c4cc(C)c5ncnn5c4)[nH]c3s2)[C@H](C)C1 [Example 357, (R)-6-isopropyl-2-(4-(2-methoxyethyl)-2-methylpiperazin-1-yl)-5-(8-methyl-[1,2,4]triazolo[1,5-a]pyridin-6-yl)-4H-pyrrolo[3,2-d]thiazole] | > 3.13 µM
3 | Cc1cc(-c2[nH]c3sc(N4CCN(CC(C)(C)O)C[C@H]4C)nc3c2C(C)C)cn2ncnc12 [Example 359, (R)-1-(4-(6-isopropyl-5-(8-methyl-[1,2,4]triazolo[1,5-a]pyridin-6-yl)-4H-pyrrolo[3,2-d]thiazol-2-yl)-3-methylpiperazin-1-yl)-2-methylpropan-2-ol] | > 3.13 µM
4 | Cc1cc(-c2[nH]c3sc(N4CCN(CC(C)C)C[C@H]4C)nc3c2C(C)C)cn2ncnc12 [Example 361, (R)-2-(4-isobutyl-2-methylpiperazin-1-yl)-6-isopropyl-5-(8-methyl-[1,2,4]triazolo[1,5-a]pyridin-6-yl)-4H-pyrrolo[3,2-d]thiazole] | > 3.13 µM

biological target: T2, human TLR9 (Homo sapiens, UniProt Q9NR96); test: TLR9 inhibition reporter assay (HEK-Blue SEAP, ODN2006 stimulation); format: cell-based; conditions: HEK-Blue cells overexpressing human TLR9, ODN2006 5 nM
T2 sequence (Q9NR96 26-1032): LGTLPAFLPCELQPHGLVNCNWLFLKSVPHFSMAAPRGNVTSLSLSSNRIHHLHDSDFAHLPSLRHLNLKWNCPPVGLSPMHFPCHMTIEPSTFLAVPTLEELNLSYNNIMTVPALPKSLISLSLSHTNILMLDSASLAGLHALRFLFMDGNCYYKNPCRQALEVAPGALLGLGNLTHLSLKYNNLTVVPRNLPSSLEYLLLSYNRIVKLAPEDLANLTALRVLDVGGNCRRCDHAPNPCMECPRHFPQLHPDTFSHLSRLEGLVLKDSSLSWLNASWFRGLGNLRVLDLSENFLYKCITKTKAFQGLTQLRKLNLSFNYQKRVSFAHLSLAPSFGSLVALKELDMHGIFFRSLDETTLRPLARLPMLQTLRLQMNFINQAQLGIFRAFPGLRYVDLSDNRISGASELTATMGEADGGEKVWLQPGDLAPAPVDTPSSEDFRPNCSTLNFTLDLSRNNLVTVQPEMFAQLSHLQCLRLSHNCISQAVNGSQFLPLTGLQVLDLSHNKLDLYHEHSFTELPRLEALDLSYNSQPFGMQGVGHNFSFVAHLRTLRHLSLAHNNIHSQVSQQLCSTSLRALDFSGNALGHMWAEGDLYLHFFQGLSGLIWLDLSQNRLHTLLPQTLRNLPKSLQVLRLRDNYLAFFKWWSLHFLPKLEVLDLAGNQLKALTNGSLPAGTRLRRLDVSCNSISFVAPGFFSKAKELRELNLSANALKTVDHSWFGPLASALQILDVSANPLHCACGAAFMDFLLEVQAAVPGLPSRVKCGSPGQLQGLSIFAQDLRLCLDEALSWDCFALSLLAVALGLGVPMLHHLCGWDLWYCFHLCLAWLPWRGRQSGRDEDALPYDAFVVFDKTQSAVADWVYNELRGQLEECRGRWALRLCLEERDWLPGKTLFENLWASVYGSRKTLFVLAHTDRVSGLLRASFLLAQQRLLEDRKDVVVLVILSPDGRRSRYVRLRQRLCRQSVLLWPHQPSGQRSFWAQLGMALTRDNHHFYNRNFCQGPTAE
Experimental: as §1, §2

Row | SMILES | IC50
5 | Cc1cc(-c2[nH]c3sc(N4CCN(CC(C)(C)O)C[C@H]4C)nc3c2C(C)C)cn2ncnc12 [Example 359, (R)-1-(4-(6-isopropyl-5-(8-methyl-[1,2,4]triazolo[1,5-a]pyridin-6-yl)-4H-pyrrolo[3,2-d]thiazol-2-yl)-3-methylpiperazin-1-yl)-2-methylpropan-2-ol] | > 50 µM
6 | COC1CN(C(=O)c2nc3c(C(C)C)c(-c4cc(C)c5ncnn5c4)[nH]c3s2)C1 [Example 396, (6-isopropyl-5-(8-methyl-[1,2,4]triazolo[1,5-a]pyridin-6-yl)-4H-pyrrolo[3,2-d]thiazol-2-yl)(3-methoxyazetidin-1-yl)methanone] | > 50 µM
7 | Cc1cc(-c2[nH]c3sc(C(=O)NC4COC4)nc3c2C(C)C)cn2ncnc12 [Example 397, 6-isopropyl-5-(8-methyl-[1,2,4]triazolo[1,5-a]pyridin-6-yl)-N-(oxetan-3-yl)-4H-pyrrolo[3,2-d]thiazole-2-carboxamide] | > 50 µM
8 | Cc1cc(-c2[nH]c3sc(C(=O)N4CCOCC4)nc3c2C(C)C)cn2ncnc12 [Example 398, (6-isopropyl-5-(8-methyl-[1,2,4]triazolo[1,5-a]pyridin-6-yl)-4H-pyrrolo[3,2-d]thiazol-2-yl)(morpholino)methanone] | > 50 µM
9 | Cc1cc(-c2[nH]c3sc(C(=O)NCC4(S(C)(=O)=O)CC4)nc3c2C(C)C)cn2ncnc12 [Example 399, 6-isopropyl-5-(8-methyl-[1,2,4]triazolo[1,5-a]pyridin-6-yl)-N-((1-(methylsulfonyl)cyclopropyl)methyl)-4H-pyrrolo[3,2-d]thiazole-2-carboxamide] | > 50 µM
10 | Cc1c(-c2[nH]c3sc(CNCC(N)=O)nc3c2C(C)C)cn2ncnc2c1C [Example 402, 2-(((5-(7,8-dimethyl-[1,2,4]triazolo[1,5-a]pyridin-6-yl)-6-isopropyl-4H-pyrrolo[3,2-d]thiazol-2-yl)methyl)amino)acetamide] | > 50 µM
11 | Cc1c(-c2[nH]c3sc(CN4CC5(C4)CS(=O)(=O)C5)nc3c2C(C)C)cn2ncnc2c1C [Example 403, 6-((5-(7,8-dimethyl-[1,2,4]triazolo[1,5-a]pyridin-6-yl)-6-isopropyl-4H-pyrrolo[3,2-d]thiazol-2-yl)methyl)-2-thia-6-azaspiro[3.3]heptane 2,2-dioxide] | > 50 µM
12 | Cc1c(-c2[nH]c3sc(CN4CC5(CCOCC5)C4)nc3c2C(C)C)cn2ncnc2c1C [Example 404, 2-((5-(7,8-dimethyl-[1,2,4]triazolo[1,5-a]pyridin-6-yl)-6-isopropyl-4H-pyrrolo[3,2-d]thiazol-2-yl)methyl)-7-oxa-2-azaspiro[3.5]nonane] | > 50 µM
13 | Cc1c(-c2[nH]c3sc(CN4CCNC(=O)C4)nc3c2C(C)C)cn2ncnc2c1C [Example 406, 4-((5-(7,8-dimethyl-[1,2,4]triazolo[1,5-a]pyridin-6-yl)-6-isopropyl-4H-pyrrolo[3,2-d]thiazol-2-yl)methyl) piperazin-2-one] | > 50 µM
14 | Cc1c(-c2[nH]c3sc(CN4CCOCC4)nc3c2C(C)C)cn2ncnc2c1C [Example 407, 4-((5-(7,8-dimethyl-[1,2,4]triazolo[1,5-a]pyridin-6-yl)-6-isopropyl-4H-pyrrolo[3,2-d]thiazol-2-yl)methyl)morpholine] | > 50 µM
15 | Cc1c(-c2[nH]c3sc(CN4CC5(COC5)C4)nc3c2C(C)C)cn2ncnc2c1C [Example 408, 6-((5-(7,8-dimethyl-[1,2,4]triazolo[1,5-a]pyridin-6-yl)-6-isopropyl-4H-pyrrolo[3,2-d]thiazol-2-yl)methyl)-2-oxa-6-azaspiro[3.3]heptane] | > 50 µM

Source: patent publication US12448395B2 (BRISTOL-MYERS SQUIBB COMPANY, priority 2019, dated 2025)
